In patent US12275729B2 (Merck Sharp & Dohme LLC, priority 2017, dated 2025) one finds IC50 data, which are given here for 24 compounds.

Assay [1] addresses T1, IDO1 (Homo sapiens, UniProt P14902). As to the kind of experiment: IDO1 Cellular Assay in HeLa Cells Stimulated with IFNγ. It is filed as cell-based. To be noted: about 48 hours, read-out: Hela IC50.
In assay [2] the target is T1, IDO1. As to the kind of experiment: IDO1 Human Whole Blood Assay. The format is cell-based. Also on record: Human whole blood was drawn in sodium heparin coated tubes from healthy internal donors; from tissue; host or cells: human whole blood from healthy donors, stimulated with LPS and IFNγ. Particulars: LPS and IFNγ stimulated. Here is the method:
IDO1 Human Whole Blood Assay
Compounds to be tested were serially diluted in ten 3-fold steps in DMSO starting from 10 mM. […] LPS and IFNγ was prepared in RPMI to a 10× of final conc. (1000 ng/mL), final concentration is 100 ng/mL.
Human whole blood was drawn in sodium heparin coated tubes from healthy internal donors. 240 μL of blood was transferred to each of the wells of a v-bottom 96 well plate. 30 μL of compound was transferred from intermediate dilution plate, and incubated for 15 min. 30 μL from stimulants was then transferred to blood and mixed thoroughly.
On day 2 isotope labeled standard of kynurenine and tryptophan was made in water at 1Ox concentration and 30 μL was added to the blood at […] final concentration. The assay plates were centrifuged at 300×G for 10 min with no brake to separate plasma from red blood cells. 60 μL of plasma samples was removed without disturbing red blood cells. Plasma was diluted with RPMI in 1:1 ratio and proteins were precipitated out with two volume of Acetonitrile. The plates were centrifuged at 4000×G for 60 min. 20 μL of supernatant was carefully transferred to a 384 well plate contain 40 μL of 0.1% formic acid in water and analyzed by LC/MS/MS.
LC/MS/MS analyses were performed using Thermo Fisher's LX4-TSQ Quantum Ultra system. This system consists of four Agilent binary high-performance liquid chromatography (HPLC) pumps and a TSQ Quantum Ultra triple quadrupole MS/MS instrument. For each sample, 5 μL were injected onto an Atlantis T3 column (2.1 mm×150 mm, […] particle size) from Waters. The mobile phase gradient pumped at 0.8 mL/min was used to elute the analytes from the column at 25° C. […] Mobile phase A consisted of 0.1% formic acid in water. Mobile phase B consisted of 0.1% of formic acid in acetonitrile. Data was acquired in positive mode using a HESI interface. The operational parameters for the TSQ Quantum Ultra instrument were a spray voltage of 4000 V, capillary temperature of 380° C., vaporizer temperature 400° C., shealth gas 60 arbitrary units, Aux gas 20 arbitrary units, tube lens 85 and collision gas 1.2 mTorr. […] The peak area was integrated by Xcalibur Quan software. The ratios between the kynurenine generated in the reaction and 2D6-Kynurenine spiked-in internal standard were used to generate percentage inhibition and IC50 values.

SMILES strings stand for the structures. pIC50: −log10 of the molar value.

T1 sequence (P14902 whole entry): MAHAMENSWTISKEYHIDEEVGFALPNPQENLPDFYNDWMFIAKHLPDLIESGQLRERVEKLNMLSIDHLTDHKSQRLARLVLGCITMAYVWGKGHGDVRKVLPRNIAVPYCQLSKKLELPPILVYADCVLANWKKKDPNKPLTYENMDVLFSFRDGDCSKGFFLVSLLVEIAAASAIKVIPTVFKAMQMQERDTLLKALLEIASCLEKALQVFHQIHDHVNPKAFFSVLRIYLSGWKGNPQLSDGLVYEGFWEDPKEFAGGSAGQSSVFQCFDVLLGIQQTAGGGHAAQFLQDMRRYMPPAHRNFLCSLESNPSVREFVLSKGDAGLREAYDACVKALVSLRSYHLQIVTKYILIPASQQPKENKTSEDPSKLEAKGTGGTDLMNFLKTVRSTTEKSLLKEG

`CC(C)NC(=O)N1CCCc2cc([C@H](C)C(=O)Nc3ccc(F)cc3)ccc21` [Example 89, 6-{(2S)-1-[(4-fluorophenyl)amino]-1-oxopropan-2-yl}-N-(propan-2-yl)-3,4-dihydroquinoline-1(2H)-carboxamide]: the pIC50 – broadly, the negative decadic logarithm of the IC50, by convention in mol/L – is 8.49 in assay [1] and 7.42 in assay [2].
Take `O=C(C1CC1)N1CCCc2cc(C3(C(=O)Nc4ccc(F)cn4)CCC3)ccc21` [Example 96, 1-(1-(cyclopropanecarbonyl)-1,2,3,4-tetrahydroquinolin-6-yl)-N-(5-fluoropyridin-2-yl)cyclobutane-1-carboxamide]: the negative-log IC50 (pIC50) in assay [1] was 8.21; in assay [2], 6.65.
The like results for `O=C(C1CC1)N1CCCc2cc(C3(C(=O)Nc4ccc(F)cc4)CCC3)ccc21` [Example 97, 1-[1-(cyclopropanecarbonyl)-1,2,3,4-tetrahydroquinolin-6-yl]-N-(4-fluorophenyl)cyclobutane-1-carboxamide] were, in that order, 8.77 and 7.96.
On to `O=C(N1CCCc2cc(C3(C(=O)Nc4ccc(F)cc4)CCC3)ccc21)C1(F)CC1` [Example 98, 1-[1-(1-fluorocyclopropane-1-carbonyl)-1,2,3,4-tetrahydroquinolin-6-yl]-N-(4-fluorophenyl)cyclobutane-1-carboxamide], for which the pIC50 was 8.48 in assay [1] and 6.44 in assay [2].
The like results for `Cc1nc(C(=O)N2CCCc3cc(C4(C(=O)Nc5ccc(F)cc5)CCC4)ccc32)no1` [Example 100, N-(4-fluorophenyl)-1-[1-(5-methyl-1,2,4-oxadiazole-3-carbonyl)-1,2,3,4-tetrahydroquinolin-6-yl]cyclobutane-1-carboxamide] were, in that order, 8.92 and 7.05.
The like results for `CC1(C(=O)N2CCCc3cc(C4(C(=O)Nc5ccc(F)cc5)CCC4)ccc32)CC1` [Example 104, N-(4-fluorophenyl)-1-[1-(1-methylcyclopropane-1-carbonyl)-1,2,3,4-tetrahydroquinolin-6-yl]cyclobutane-1-carboxamide] were, in that order, 8.46 and 6.94.
On to `O=C(C1COC1)N1CCCc2cc(C3(C(=O)Nc4ccc(F)cc4)CCC3)ccc21` [Example 115, N-(4-fluorophenyl)-1-[1-(oxetane-3-carbonyl)-1,2,3,4-tetrahydroquinolin-6-yl]cyclobutane-1-carboxamide], for which the pIC50 is 7.70 in assay [1] and 6.32 in assay [2].
Take `Cn1ccc(C(=O)N2CCCc3cc(C4(C(=O)Nc5ccc(F)cn5)CCC4)ccc32)n1` [Example 120, N-(5-fluoropyridin-2-yl)-1-[1-(1-methyl-1H-pyrazole-3-carbonyl)-1,2,3,4-tetrahydroquinolin-6-yl]cyclobutane-1-carboxamide]: the pIC50 was 8.85 in assay [1] and 6.67 in assay [2].
Regarding `CC(C(=O)Nc1ccc(F)cc1)c1ccc2c(n1)CCCN2C(=O)[C@H]1CCCO1` (stereo partly drawn) [Example 137, N-(4-fluorophenyl)-2-(5-((R)-tetrahydrofuran-2-carbonyl)-5,6,7,8-tetrahydro-1,5-naphthyridin-2-yl)propanamide], the negative logarithm of the IC50 (pIC50) was 7.92 in assay [1] and 7.54 in assay [2].
As to `CC(NC(=O)c1ccc(F)cc1)c1ccc2c(n1)CCCN2C(=O)c1ccn(C)n1` (stereo not drawn) [Example 138, 4-fluoro-N-{1-[5-(1-methyl-1H-pyrazole-3-carbonyl)-5,6,7,8-tetrahydro-1,5-naphthyridin-2-yl]ethyl}benzamide], the pIC50 in assay [1] was 8.20; in assay [2], 7.17.
Consider `CC(NC(=O)c1ccc(F)cc1)c1ccc2c(n1)CCCN2C(=O)c1ccccc1Cl` (stereo not drawn) [Example 141, N-{1-[5-(2-chlorobenzene-1-carbonyl)-5,6,7,8-tetrahydro-1,5-naphthyridin-2-yl]ethyl}-4-fluorobenzamide], for which the negative-log IC50 (pIC50) in assay [1] is 8.77; in assay [2], 7.59.
With `C[C@@H](NC(=O)c1ccc(F)cc1)c1ccc2c(n1)CCCN2C(=O)[C@H]1CCCO1` [Example 145, 4-fluoro-N-[(1R)-1-{5-[(2R)-oxolane-2-carbonyl]-5,6,7,8-tetrahydro-1,5-naphthyridin-2-yl}ethyl]benzamide], the results for the pIC50 in assay [1] and in assay [2] were 8.10 and 6.90, respectively.
With `CC(NC(=O)c1ccc(F)cc1)c1ccc2c(n1)CCCN2C(=O)c1cc(Cl)cc(Cl)c1` (stereo not drawn) [Example 149, N-{1-[5-(3,5-dichlorobenzene-1-carbonyl)-5,6,7,8-tetrahydro-1,5-naphthyridin-2-yl]ethyl}-4-fluorobenzamide], the figures for the pIC50 in assay [1] and in assay [2] were 8.49 and 7.48, respectively.
The like results for `CC(NC(=O)c1ccc(F)cc1)c1ccc2c(n1)CCCN2C(=O)c1c(Cl)cccc1Cl` (stereo not drawn) [Example 150, N-{1-[5-(2,6-dichlorobenzene-1-carbonyl)-5,6,7,8-tetrahydro-1,5-naphthyridin-2-yl]ethyl}-4-fluorobenzamide] were, in that order, 8.14 and 5.94.
For `CC(C(=O)Nc1ccc(F)cc1)c1ccc2c(n1)CCCN2C(=O)C1CCOCC1` (stereo not drawn) [Example 165, N-(4-fluorophenyl)-2-[5-(oxane-4-carbonyl)-5,6,7,8-tetrahydro-1,5-naphthyridin-2-yl]propanamide], in that order: 8.57 and 7.47.
`N#Cc1cccc(C(=O)N2CCCc3nc(C4(NC(=O)c5ccc(F)cc5)CC4)ccc32)c1` [Example 175, N-{1-[5-(3-cyanobenzene-1-carbonyl)-5,6,7,8-tetrahydro-1,5-naphthyridin-2-yl]cyclopropyl}-4-fluorobenzamide]: the pIC50 was 8.31 in assay [1] and 7.72 in assay [2].
For the compound `CC(C)(C(=O)Nc1ccc(Cl)cc1)c1ccc2c(c1)CCCN2C(=O)c1cccc(Cl)c1` [Example 187, 2-[1-(3-chlorobenzene-1-carbonyl)-1,2,3,4-tetrahydroquinolin-6-yl]-N-(4-chlorophenyl)-2-methylpropanamide], the pIC50 in assay [1] is 8.35; in assay [2], 5.69.
The like results for `COCCOC(=O)N1CCCc2nc(C(C)NC(=O)c3ccc(Cl)cc3)ccc21` (stereo not drawn) [Example 212, 2-methoxyethyl 6-{1-[(4-chlorobenzene-1-carbonyl)amino]ethyl}-3,4-dihydro-1,5-naphthyridine-1(2H)-carboxylate] were, in that order, 8.52 and 7.46.
The like results for `COC(=O)N1CCCc2nc(C(C)NC(=O)c3ccc(Cl)cc3)ccc21` (stereo not drawn) [Example 213, methyl 6-{1-[(4-chlorobenzene-1-carbonyl)amino]ethyl}-3,4-dihydro-1,5-naphthyridine-1(2H)-carboxylate] were, in that order, 8.20 and 6.41.
`CC(NC(=O)c1ccc(F)cc1)c1ccc2c(n1)CCCN2Cc1cccc(Cl)c1` (stereo not drawn) [Example 229, N-(1-{5-[(3-chlorophenyl)methyl]-5,6,7,8-tetrahydro-1,5-naphthyridin-2-yl}ethyl)-4-fluorobenzamide]: the figures for the pIC50 in assay [1] and in assay [2] were 8.46 and 6.61, respectively.
For `CCn1ccc(N2CCCc3cc(C4(C(=O)Nc5ccc(F)cn5)CCC4)ccc32)n1` [Example 232, 1-[1-(1-ethyl-H-pyrazol-3-yl)-1,2,3,4-tetrahydroquinolin-6-yl]-N-(5-fluoropyridin-2-yl)cyclobutane-1l-carboxamide], in that order: 8.27 and 6.25.
`Cc1cccc(N2CCCc3nc(C4(NC(=O)c5ccc(F)cc5)CC4)ccc32)n1` [Example 245, 4-fluoro-N-(1-(5-(6-methylpyridin-2-yl)-5,6,7,8-tetrahydro-1,5-naphthyridin-2-yl)cyclopropyl)benzamide]: the pIC50 was 8.57 in assay [1] and 5.59 in assay [2].
As for `Cc1nccc(N2CCCc3nc(C4(NC(=O)c5ccc(Cl)cc5)CC4)ccc32)n1` [Example 249, 4-chloro-N-(1-(5-(2-methylpyrimidin-4-yl)-5,6,7,8-tetrahydro-1,5-naphthyridin-2-yl)cyclopropyl)benzamide], the pIC50 in assay [1] is 9.15; in assay [2] it was 7.20.
For `Cc1nccc(N2CCCc3nc(C(C)NC(=O)c4ccc(Cl)cc4)ccc32)n1` (stereo not drawn) [Example 250, 4-chloro-N-(1-(5-(2-methylpyrimidin-4-yl)-5,6,7,8-tetrahydro-1,5-naphthyridin-2-yl)ethyl)benzamide], the pIC50 is 8.70 in assay [1] and 7.49 in assay [2].
